Where two headings read alike, the source gives them in different places.
System: microbial inhibition test (Premi®Test)
Protocol: Urine samples were examined using microbial inhibition test ampoules produced according to the methods described in EP 0005891 with the nutrients present in the agar. Said test is also known as Premi®Test (commercially available from DSM, Delft, The Netherlands).
Samples were examined as described in Example 1. CaCl2.2H2O was dissolved in water or chicken meat fluid, in concentrations of 0, 0.0078, 0.0156, 0.0312, 0.0625, 0.125, 0.25, 0.5 and 1 M. The samples were added to the test ampoules. After a pre-incubation for 20 minutes at room temperature the sample was removed and the test was incubated in a water bath at 64±1° C. following the instructions of the manufacturer. The results were obtained after 165 minutes for chicken meat fluid and 185 minutes in case of water, by reading the change of color from purple to yellow.

[Ca+2].[Cl-].[Cl-] [CaCl2, Calcium Chloride]
up to 1 M: Concentration of CaCl2 with no inhibition (in chicken meat fluid)
Yellow: Color observed in microbial inhibition test (CaCl2 0.0078 M in chicken meat fluid, read after 165 minutes) | Color observed in microbial inhibition test (CaCl2 0.0078 M in water, read after 185 minutes) | Color observed in microbial inhibition test (CaCl2 0.0156 M in chicken meat fluid, read after 165 minutes) | Color observed in microbial inhibition test (CaCl2 0.0156 M in water, read after 185 minutes) | Color observed in microbial inhibition test (CaCl2 0.0312 M in chicken meat fluid, read after 165 minutes) | Color observed in microbial inhibition test (CaCl2 0.0312 M in water, read after 185 minutes) | Color observed in microbial inhibition test (CaCl2 0.0625 M in chicken meat fluid, read after 165 minutes) | Color observed in microbial inhibition test (CaCl2 0.0625 M in water, read after 185 minutes) | Color observed in microbial inhibition test (CaCl2 0.125 M in chicken meat fluid, read after 165 minutes) | Color observed in microbial inhibition test (CaCl2 0.125 M in water, read after 185 minutes) | Color observed in microbial inhibition test (CaCl2 0.25 M in chicken meat fluid, read after 165 minutes) | Color observed in microbial inhibition test (CaCl2 0.25 M in water, read after 185 minutes) | Color observed in microbial inhibition test (CaCl2 0.5 M in chicken meat fluid, read after 165 minutes) | Color observed in microbial inhibition test (CaCl2 1 M in chicken meat fluid, read after 165 minutes)
Purple: Color observed in microbial inhibition test (CaCl2 0.5 M in water, read after 185 minutes) | Color observed in microbial inhibition test (CaCl2 1 M in water, read after 185 minutes)
up to 0.25 M: Concentration of CaCl2 that does not influence the test results (in water)

From patent publication US7932051B2, “Blood and urine test” (R-Biopharm AG, priority 2003, dated 2011)
